Test results reported in publication PMC8794255, “Small molecule inhibitor of Igf2bp1 represses Kras and a pro-oncogenic phenotype in cancer cells” (RNA Biology, 2021).
Values joined by “and” are separate entries in the source; they are usually repeats but may differ in a detail not shown here. Equal entries are not always repeated.

Columns and labels:
[1] = biological target: T1, Igf2bp1 (Homo sapiens, UniProt Q9NZI8); assay: Fluorescence polarization (FP) assay of Igf2bp1 binding to fluorescent Kras 6 RNA; settings: FP dose response; read-out: IC50, inhibition of Igf2bp1 binding to Kras 6 RNA
T1 construct: Recombinant full-length Igf2bp1 protein was labelled with RED-tris-NTA dye; made in house
T1 sequence (Q9NZI8 whole entry): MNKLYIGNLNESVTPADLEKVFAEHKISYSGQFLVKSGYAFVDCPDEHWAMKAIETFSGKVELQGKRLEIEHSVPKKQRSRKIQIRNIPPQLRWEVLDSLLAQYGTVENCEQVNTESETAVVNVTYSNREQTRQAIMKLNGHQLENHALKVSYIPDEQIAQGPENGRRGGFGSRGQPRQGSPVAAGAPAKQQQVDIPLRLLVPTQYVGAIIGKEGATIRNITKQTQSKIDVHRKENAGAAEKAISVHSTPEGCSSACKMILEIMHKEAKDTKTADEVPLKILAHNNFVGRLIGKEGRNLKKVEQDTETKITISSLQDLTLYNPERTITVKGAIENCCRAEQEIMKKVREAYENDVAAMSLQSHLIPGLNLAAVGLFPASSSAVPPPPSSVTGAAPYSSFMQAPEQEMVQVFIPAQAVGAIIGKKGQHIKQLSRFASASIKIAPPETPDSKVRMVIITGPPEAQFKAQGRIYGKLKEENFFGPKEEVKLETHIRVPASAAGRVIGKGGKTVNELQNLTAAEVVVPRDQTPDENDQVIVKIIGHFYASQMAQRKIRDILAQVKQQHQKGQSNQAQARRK
Experimental: For the small-molecule screen, compounds were obtained from the collection maintained at the Grand Israel National Center for Personalized Medicine, consisting of molecules purchased from commercial vendors. Labelled RNA (10 nM) was incubated with recombinant Igf2bp1 protein (400 nM) in FAM-RNA buffer (10 mM Tris pH 8.0, 75 mM KCl, 0.5 mM EDTA, 1 mM DTT, 0.0188 U/μL RNAsin, 0.0005 μg/mL heparin, 0.0001 μg/μL tRNA, 0.01% Triton X-100, 3 mM MgCl2, 0.05% IGEPAL) at room temperature for 15 min. 7 μL of this reaction mix was aliquoted with GNF WDII (USA) into wells of 1536 well plates, with a final concentration of 20 μM compound or DMSO. The plates were spun down and read in a BMG Pherastar FS (Germany) plate reader, in FP mode with a 485/520/520 polarization filter, calibrated to 35 mP for free fluorescein with similar total intensity as experimental samples. […]
To determine the quality of our screening assay, the Z’ factor for each plate was calculated with a Z’ factor greater than 0.5 indicating a robust assay suitable for high throughput screening. Compounds that altered the overall fluorescence intensity compared to controls were considered auto florescence and excluded from further analysis. […] Any small molecule that causes a change of more than three standard deviations from the mean is determined appropriate for further investigation.

[2] = biological target: T2, Igf2bp3 (Homo sapiens, UniProt O00425); assay: MST, Igf2bp3; settings: IGF2BP3 50nM, read-out: KD of binding to Igf2bp3
T2 construct: made in house
T2 sequence (O00425 whole entry, species assumed): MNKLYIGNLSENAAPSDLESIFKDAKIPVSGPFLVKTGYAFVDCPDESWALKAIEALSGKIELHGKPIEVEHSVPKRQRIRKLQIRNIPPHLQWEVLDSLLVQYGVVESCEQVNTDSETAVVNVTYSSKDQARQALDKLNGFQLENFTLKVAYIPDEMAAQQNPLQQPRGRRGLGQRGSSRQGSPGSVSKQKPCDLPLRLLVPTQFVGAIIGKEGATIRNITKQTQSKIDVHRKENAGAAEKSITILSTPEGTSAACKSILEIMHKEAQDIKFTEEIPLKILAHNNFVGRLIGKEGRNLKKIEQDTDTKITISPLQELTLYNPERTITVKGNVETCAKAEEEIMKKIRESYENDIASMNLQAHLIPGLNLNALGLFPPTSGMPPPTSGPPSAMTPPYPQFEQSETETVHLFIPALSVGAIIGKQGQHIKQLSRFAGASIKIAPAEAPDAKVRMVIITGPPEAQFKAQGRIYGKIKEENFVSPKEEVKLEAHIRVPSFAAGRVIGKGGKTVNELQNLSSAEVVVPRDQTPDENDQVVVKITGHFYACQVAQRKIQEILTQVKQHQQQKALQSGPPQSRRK

[3] = tested on: LKR-M cells overexpressing human Igf2bp1-GFP; assay: Wound healing assay, LKR-M cells expressing human Igf2bp1-GFP; format: cell-based, mouse; settings: 20 μM 7773 vs DMSO
Experimental: (§1) Cells were seeded in 96 IncuCyte® ImageLock plates (20X10^3 cells per well) for 24 hours, to a near confluency of 95%, before the addition of increasing concentrations of compound. After a further 24 hours, wells were scratched using the IncuCyte® 96-well WoundMaker Tool, and the cells cultured for an additional 48 hours using the IncuCyte® S3 Live-Cell Analysis System (Essen BioScience). The plate was imaged at increments of 120 minutes for a period of 48 hours, and then analysed for relative wound healing.

[4] = tested on: H1299 cells; assay: qPCR of Igf2bp1 target RNAs in H1299 cells; format: cell-based, human
Experimental: Cells were grown for 12 hours in 12 well plates prior to incubation with the compound at different concentrations for an additional 12 or 24 hours. Total RNA was then extracted using EZ-RNA total RNA isolation kit (Biological Industries) and cDNA prepared from the RNA using the First Strand cDNA Synthesis kit (Quanta bio). Real time PCR was performed with Fast SYBR Green Master Mix (Thermo Fisher Scientific), and cDNA expression analysed with the Bio-Rad CFX Manager 3.1.

[5] = tested on: Kras protein in H1299 cells; assay: Western blot of Kras protein in H1299 cells; format: cell-based, human; settings: H1299, 10 and 20 μM 7773, 48 hours
Experimental: Western blots were performed as described. For fluorescent westerns, cell lysates were prepared with phosphatase inhibitors (β-Glycerophosphate and Sodium orthovanadate) and a protease inhibitor (cOmplete™, Mini Protease Inhibitor Cocktail, Roche 04693124001), membranes were read using a Li-Core Odyssey laser scanner, and results analysed using Image Studio Lite software.
The following primary antibodies were used: mouse anti-total ERK (p44/42 MAPK (Erk1/2) L34 F12 Cell Signalling 4696s), mouse anti-Kras (CPTC-KRAS4B-2, DSHB) rabbit anti-dpERK, (p44/42 MAPK, Cell Signalling 4370), rabbit anti-alpha/beta tubulin (Cell Signalling 2148), goat anti-rabbit IgG-HRP (Jackson), goat anti-mouse IgG-HRP (Jackson). Secondary antibodies for fluorescent westerns: donkey anti-mouse 800 (Rockland 610–732-124), goat anti-rabbit 680 (Molecular Probes A21076).

[6] = tested on: ES2 cells; assay: Wound healing (cell migration) assay, ES2; format: cell-based, human
Experimental: as §1

IC50 [1]: ~30 µM and 30.4 µM
Kd [2]: 52 µM
Compound: O=C(c1ccc(Cn2cnnn2)cc1)N1CCCC(Nc2ccc3c(c2)OCO3)C1 (stereo not drawn) [compound 7773]
Effect on Igf2bp1-GFP-enhanced wound healing [3]: significantly inhibited
Steady state level of Kras mRNA ([4]; H1299, 20 μM 7773, 12 hours): already reduced
Steady state levels of CD44, Kras, cMyc and SRF RNA ([4]; H1299, 20 μM 7773, 24 hours): all of the RNAs significantly reduced
Levels of control RNAs that are not targets of Igf2bp1 ([4]; H1299, 24 hours): not significantly affected
Kras protein level [5]: dose-dependent reduction
Wound healing ([6]; ES2, 20 μM): strongly inhibited
Wound healing ([6]; ES2, lowest concentration 5 μM): discernible inhibition
